Literature values in patent US20240335409A1, “SYSTEMS AND METHODS FOR DELIVERY OF PHENYLALANINE AND LACTATE” (Transdermal Biotechnology, Inc., priority 2022, published 2024).

Key:
[1] = test system: mice

- water solubility: > 2000 µM
Structure (SMILES): C[C@H](O)C(=O)N[C@@H](Cc1ccccc1)C(=O)O [Lac-Phe, N-lactoyl-phenylalanine]
- effect on food intake and obesity [1]: effectively reduce food intake and obesity
